This passage reports IC50 results from patent US10577363B2, “Substituted piperidine compounds” (EPIZYME, INC., priority 2014, dated 2020).

For assay [1], the target named is T1, SMYD3 (Homo sapiens (Human), UniProt Q9H7B4). In words: SMYD3 biochemical assay (SPA, 3H-SAM methylation of MEKK2 protein substrate). The method, boiled down: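 Enzyme: untagged full-length human SMYD3 from E. coli; substrate GST-tagged MEKK2 from insect cells. Buffer 25 mM Tris-Cl pH 8.0, 1 mM TCEP, 0.005% BSG/Tween 20. 30 min compound–enzyme preincubation at RT; 3H-SAM/MEKK2 start; stop with cold SAM (100 uM final); SPA readout in cpm.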
T1 sequence (Q9H7B4 whole entry): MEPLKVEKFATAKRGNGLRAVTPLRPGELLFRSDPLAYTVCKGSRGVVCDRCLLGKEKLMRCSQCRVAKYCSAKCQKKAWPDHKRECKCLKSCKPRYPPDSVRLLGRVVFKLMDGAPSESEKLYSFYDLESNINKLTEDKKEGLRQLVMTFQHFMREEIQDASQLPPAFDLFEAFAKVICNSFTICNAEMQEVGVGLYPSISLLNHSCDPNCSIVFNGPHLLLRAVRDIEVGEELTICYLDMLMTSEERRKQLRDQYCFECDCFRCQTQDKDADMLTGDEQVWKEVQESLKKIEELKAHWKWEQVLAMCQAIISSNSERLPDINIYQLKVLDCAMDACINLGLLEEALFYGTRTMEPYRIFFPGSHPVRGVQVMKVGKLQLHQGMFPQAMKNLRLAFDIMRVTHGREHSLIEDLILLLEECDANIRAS

For assay [2], the target named is T1, SMYD3. In words: SMYD3 cell assay (Trimethyl-MEKK2 In-Cell Western in 293T/17 cells). The format is cell-based. The method, boiled down:
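In-Cell Western readout: methanol-fixed cells stained for trimethyl-MEKK2 and flag tag, ratio per well normalized to DMSO and background controls.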

The mark [3] stands for this setting: read-out: SMYD3 Biochem IC50 (μM)*.
The mark [4] stands for this setting: 293T/17 cells, read-out: SMYD3 Cell IC50 (μM)*.
Setting [5] is: Table 1A, IC50 values are an average of n = 1 to n = 50, read-out: SMYD3 Cell IC50.
Setting [6] is: Table 1A, IC50 values are an average of n = 1 to n = 50, read-out: SMYD3 Biochem IC50.

For `C[C@H]1C[C@@H](NC(=O)c2cc(C3CC3)on2)CCN1C(=O)N1CCN(Cc2ccccc2)CC1` [compound 478, N-((2S,4S)-1-(4-benzylpiperazine-1-carbonyl)-2-methylpiperidin-4-yl)-5-cyclopropylisoxazole-3-carboxamide], the 50% inhibitory concentration (IC50) in assay [1] (setting [3]) and in assay [2] (setting [4]) was above 10 µM throughout.
Turning to `NCCCS(=O)(=O)N1CCC(NC(=O)c2cc(C3CC3)on2)C[C@@H]1c1ccccc1` (stereo partly drawn) [compound 480, N-((2R)-1-((3-aminopropyl)sulfonyl)-2-phenylpiperidin-4-yl)-5-cyclopropylisoxazole-3-carboxamide], the half-maximal inhibitory concentration (IC50) (in general, the concentration that inhibits the measured activity by half) in assay [1] (setting [3]) amounted to 0.0658 µM; in assay [2] (setting [4]), 2.24 µM.
Turning to `NCCCS(=O)(=O)N1CCC(NC(=O)c2cc(C3CC3)on2)C[C@H]1c1ccccc1` (stereo partly drawn) [compound 481, N-((2S)-1-((3-aminopropyl)sulfonyl)-2-phenylpiperidin-4-yl)-5-cyclopropylisoxazole-3-carboxamide], the figures for the concentration for half-maximal inhibition (IC50) in assay [1] (setting [3]) and in assay [2] (setting [4]) were 0.479 µM and 4.47 µM, respectively.
Take `C[C@H]1C[C@@H](NC(=O)c2cc(C3CC3)on2)CCN1S(=O)(=O)C1CCOC1` (stereo partly drawn) [compound 482, 5-cyclopropyl-N-((2S,4S)-2-methyl-1-((tetrahydrofuran-3-yl)sulfonyl)piperidin-4-yl)isoxazole-3-carboxamide]: the results for the IC50 in assay [1] (setting [3]) and in assay [2] (setting [4]) were 0.928 µM and 2.83 µM, respectively.
The like results for `C[C@H]1C[C@@H](NC(=O)c2cc(C3CC3)on2)CCN1S(=O)(=O)c1c[nH]cn1` [compound 483, N-((2S,4S)-1-((1H-imidazol-4-yl)sulfonyl)-2-methylpiperidin-4-yl)-5-cyclopropylisoxazole-3-carboxamide] were, in that order, 0.533 µM and 2.13 µM.
On the same counts, the results for `NCCCS(=O)(=O)N1[C@@H]2CC[C@H]1C[C@H](NC(=O)c1cc(C3CC3)on1)C2` [compound 484, N-((1R,3s,5S)-8-((3-aminopropyl)sulfonyl)-8-azabicyclo[3.2.1]octan-3-yl)-5-cyclopropylisoxazole-3-carboxamide] are 0.0792 µM and 1.44 µM.
Regarding `O=C(NC1CC2CCCC(C1)N2S(=O)(=O)CC1CCCNC1)c1cc(C2CC2)on1` (stereo not shown) [compound 488, 5-cyclopropyl-N-(9-((piperidin-3-ylmethyl)sulfonyl)-9-azabicyclo[3.3.1]nonan-3-yl)isoxazole-3-carboxamide], the IC50 in assay [1] (read-out: SMYD3 Biochem IC50) worked out at 0.0451 µM; in assay [2] (setting [5]) it was 0.857 µM.
As for `O=C(Nc1ccc(S(=O)(=O)N2[C@@H]3CC[C@H]2C[C@H](NC(=O)c2cc(C4CC4)on2)C3)cc1)c1ccncc1` [compound 489, 5-cyclopropyl-N-((1R,3s,5S)-8-((4-(isonicotinamido)phenyl)sulfonyl)-8-azabicyclo[3.2.1]octan-3-yl)isoxazole-3-carboxamide], the half-maximal inhibitory concentration (IC50) was found to be 5.42 µM in assay [1] (setting [6]) and 6.66 µM in assay [2] (setting [5]).
`O=C1Cc2cc(S(=O)(=O)N3[C@@H]4CC[C@H]3C[C@H](NC(=O)c3cc(C5CC5)on3)C4)c(Cl)cc2N1` [compound 490, N-((1R,3s,5S)-8-((6-chloro-2-oxoindolin-5-yl)sulfonyl)-8-azabicyclo[3.2.1]octan-3-yl)-5-cyclopropylisoxazole-3-carboxamide]: the IC50 was 9.23 µM in assay [1] (setting [6]) and above 10 µM in assay [2] (setting [5]).
Take `O=C(N[C@@H]1C[C@H]2CC[C@@H](C1)N2S(=O)(=O)c1cc2oc(=O)[nH]c2cc1Cl)c1cc(C2CC2)on1` [compound 491, N-((1R,3s,5S)-8-((5-chloro-2-oxo-2,3-dihydrobenzo[d]oxazol-6-yl)sulfonyl)-8-azabicyclo[3.2.1]octan-3-yl)-5-cyclopropylisoxazole-3-carboxamide]: the 50% inhibitory concentration (IC50) in assay [1] (setting [6]) and in assay [2] (setting [5]) was above 10 µM in each case.
Regarding `O=C1Cc2cc(S(=O)(=O)N3[C@@H]4CC[C@H]3C[C@H](NC(=O)c3cc(C5CC5)on3)C4)ccc2N1` [compound 493, 5-cyclopropyl-N-((1R,3s,5S)-8-((2-oxoindolin-5-yl)sulfonyl)-8-azabicyclo[3.2.1]octan-3-yl)isoxazole-3-carboxamide], the IC50 in assay [1] (setting [6]) was 0.842 µM; in assay [2] (setting [5]), 2.75 µM.
`O=C(N[C@@H]1C[C@H]2CC[C@@H](C1)N2S(=O)(=O)CCCN1CCOCC1)c1cc(C2CC2)on1` [compound 495, 5-cyclopropyl-N-((1R,3s,5S)-8-((3-morpholinopropyl)sulfonyl)-8-azabicyclo[3.2.1]octan-3-yl)isoxazole-3-carboxamide]: the IC50 in assay [1] (setting [6]) and in assay [2] (setting [5]) was above 10 µM in each case.
As for `O=C(N[C@H]1C[C@H]2CC[C@@H](C1)N2S(=O)(=O)CCCN1CCOCC1)c1cc(C2CC2)on1` [compound 496, 5-cyclopropyl-N-((1R,3r,5S)-8-((3-morpholinopropyl)sulfonyl)-8-azabicyclo[3.2.1]octan-3-yl)isoxazole-3-carboxamide], the concentration for half-maximal inhibition (IC50) stood at 0.162 µM in assay [1] (setting [6]) and 0.854 µM in assay [2] (setting [5]).
Turning to `O=C(N[C@H]1CCN(S(=O)(=O)CCCN2CCOCC2)[C@@H](Cc2ccccc2)C1)c1cc(C2CC2)on1` [compound 497, N-((2S,4S)-2-benzyl-1-((3-morpholinopropyl)sulfonyl)piperidin-4-yl)-5-cyclopropylisoxazole-3-carboxamide], the IC50 in assay [1] (setting [6]) and in assay [2] (setting [5]) was above 10 µM throughout.
Regarding `O=C(N[C@H]1CCN(S(=O)(=O)CCCN2CCOCC2)[C@H](Cc2ccccc2)C1)c1cc(C2CC2)on1` [compound 498, N-((2R,4S)-2-benzyl-1-((3-morpholinopropyl)sulfonyl)piperidin-4-yl)-5-cyclopropylisoxazole-3-carboxamide], the IC50 in assay [1] (setting [6]) was 9.96 µM; in assay [2] (setting [5]), above 10 µM.
With `O=C(N[C@H]1CCN(S(=O)(=O)CCN2CCOCC2)[C@H](Cc2ccccc2)C1)c1cc(C2CC2)on1` [compound 499, N-((2R,4S)-2-benzyl-1-((2-morpholinoethyl)sulfonyl)piperidin-4-yl)-5-cyclopropylisoxazole-3-carboxamide], the concentration for half-maximal inhibition (IC50) in assay [1] (setting [6]) and in assay [2] (setting [5]) was above 10 µM in each case.
For the compound `CC(C)[C@@H]1C[C@H](NC(=O)c2cc(C3CC3)on2)CCN1S(=O)(=O)CCCN` [compound 502, N-((2S,4R)-1-((3-aminopropyl)sulfonyl)-2-isopropylpiperidin-4-yl)-5-cyclopropylisoxazole-3-carboxamide], the concentration for half-maximal inhibition (IC50) in assay [1] (setting [6]) was 0.766 µM; in assay [2] (setting [5]), above 10 µM.
With `CC(C)[C@H]1C[C@H](NC(=O)c2cc(C3CC3)on2)CCN1S(=O)(=O)CCCN` [compound 503, N-((2R,4R)-1-((3-aminopropyl)sulfonyl)-2-isopropylpiperidin-4-yl)-5-cyclopropylisoxazole-3-carboxamide], the values for the IC50 in assay [1] (setting [6]) and in assay [2] (setting [5]) were 1.06 µM and above 10 µM, respectively.
`COCCN(C)c1ccc(S(=O)(=O)N2CC[C@H](NC(=O)c3cc(C4CC4)on3)C[C@H]2C)cn1` [compound 504, 5-cyclopropyl-N-((2R,4S)-1-((6-((2-methoxyethyl)(methyl)amino)pyridin-3-yl)sulfonyl)-2-methylpiperidin-4-yl)isoxazole-3-carboxamide]: the IC50 in assay [1] (setting [6]) and in assay [2] (setting [5]) was above 10 µM each time.
As to `COCCNc1ccc(S(=O)(=O)N2CC[C@@H](NC(=O)c3cc(C4CC4)on3)C[C@@H]2C)cn1` [compound 505, 5-cyclopropyl-N-((2S,4R)-1-((6-((2-methoxyethyl)amino)pyridin-3-yl)sulfonyl)-2-methylpiperidin-4-yl)isoxazole-3-carboxamide], the half-inhibitory concentration (IC50) in assay [1] (read-out: SMYD3 Biochem IC50) and in assay [2] (setting [5]) was above 10 µM each time.
